From patent US9216973B2, “Insecticidal compounds” (Syngenta Participations AG, priority 2008, dated 2015)

What was measured:
[1] = system: Plutella xylostella (Diamond back moth); test: Plutella xylostella larvae test on artificial diet; type: in vivo; settings: for pest or weed control at 200 ppm: 144 h, 200 ppm (concentration in well 18 ppm), artificial diet, L2 larvae, larval mortality and growth regulation after 6 days
Experimental: (§1) This Example illustrates the insecticidal and acaricidal properties of compounds of formula (I). The tests were performed as follows:
(§2) Cotton leaf discs were placed on agar in a 24-well microtiter plate and sprayed with test solutions at an application rate of 200 ppm. After drying, the leaf discs were infested with 5 L1 larvae. The samples were checked for mortality, feeding behavior, and growth regulation 3 days after treatment (DAT). The following compound gave at least 80% control of Spodoptera littoralis: A1, A2, A5, A6, A7, A8, A10, A11, A12, A13, A14, A15, A16, A17, A18, A19, A21, A22, A23, A24, A25, A30, A31, A32, A33, A34, A35, A39, A40, A41 A42, A43, A44, A45, A46, A47, A48, A49, A50, A51, A53, A54, A55, A59, A60, A61, A62. Heliothis virescens (Tobacco budworm): Eggs (0-24 h old) were placed in 24-well microtiter plate on artificial diet and treated with test solutions at an application rate of 200 ppm (concentration in well 18 ppm) by pipetting. After an incubation period of 4 days, samples were checked for egg mortality, larval mortality, and growth regulation. The following compound gave at least 80% control of Heliothis virescens: A1, A2, A3, A4, A5, A6, A7, A8, A10, A11, A12, A13, A14, A15, A16, A18, A19, A21, A22, A24, A25, A30, A31, A32, A33, A34, A35, A37, A38, A39, A40, A42, A43, A44, A45, A46, A47, A48, A49, A50, A51, A55, AA57, A58, A59, A60, A61, A62. Plutella xylostella (Diamond back moth): 24-well microtiter plate (MTP) with artificial diet was treated with test solutions at an application rate of 200 ppm (concentration in well 18 ppm) by pipetting. After drying, the MTP's were infested with L2 larvae (7-12 per well). After an incubation period of 6 days, samples were checked for larval mortality and growth regulation. The following compound gave at least 80% control of Plutella xylostella: A1, A2, A5, A6, A7, A8, A9, A10, A11, A12, A13, A14, A15, A16, A17, A18, A19, A20, A21, A22, A24, A25, A30, A31, A32, A33, A34, A35, A37, A38, A39, A40, A42, A43, A44, A45, A46, A47, A48, A49, A50, A51, A52, A53, A54, A55, A57, A58, A59, A60, A61, A62, B3. Diabrotica balteata (Corn root worm): A 24-well microtiter plate (MTP) with artificial diet was treated with test solutions at an application rate of 200 ppm (concentration in well 18 ppm) by pipetting. After drying, the MTP's were infested with L2 larvae (6-10 per well). After an incubation period of 5 days, samples were checked for larval mortality and growth regulation. The following compound gave at least 80% control of Diabrotica balteata: A1, A2, A5, A6, A7, A10, A11, A12, A13, A14, A15, A16, A17, A18, A19, A21, A22, A24, A25, A30, A31, A32, A33, A34, A35, A38, A39, A40, A42, A43, A44, A45, A46, A47, A48, A49, A50, A59, A60, A61, A62. Thrips tabaci (Onion thrips): Sunflower leaf discs were placed on agar in a 24-well microtiter plate and sprayed with test solutions at an application rate of 200 ppm. After drying, the leaf discs were infested with an […] population of mixed ages. After an incubation period of 7 days, samples were checked for mortality. The following compounds gave at least 80% control of Thrips tabaci: A1, A2, A5, A6, A7, A8, A10, A12, A13, A14, A15, A16, A17, A18, A19, A21, A24, A25, A30, A31, A32, A33, A34, A35, A39, A42, A43, A44, A45, A46, A47, A48, A49, A50, A51, A53, A54, A57, A58, A59, A60, A61, A62. Tetranychus urticae (Two-spotted spider mite): Bean leaf discs on agar in 24-well microtiter plates were sprayed with test solutions at an application rate of 200 ppm. After drying, the leaf discs are infested with mite populations of mixed ages. 8 days later, discs are checked for egg mortality, larval mortality, and adult mortality. The following compound gave at least 80% control of Tetranychus urticae: A1, A2, A4, A5, A6, A7, A8, A10, A11, A12, A13, A14, A15, A16, A17, A18, A19, A20, A21, A22, A30, A31, A32, A33, A34, A35, A39, A40, A41, A42, A43, A44, A45, A46, A47, A48, A49, A50, A51, A53, A54, A55, A57, A59, A60, A61, A62.

[2] = system: Heliothis virescens (Tobacco budworm); test: Heliothis virescens egg test on artificial diet; type: in vivo; settings: for pest or weed control at 200 ppm: 96 h, 200 ppm (concentration in well 18 ppm), eggs 0-24 h old on artificial diet, egg mortality, larval mortality, growth regulation after 4 days, read-out: control of Heliothis virescens
Experimental: as §1, §2

Structure (SMILES)	pest or weed control at 200 ppm [1] [%]	pest or weed control at 200 ppm [2] [%]	effect on mortality, feeding behavior, or growth regulation ([1]; same protocol, 200 ppm)	effect on mortality, feeding behavior, or growth regulation ([2]; same protocol, 200 ppm)
Cc1cc(C2=NOC(c3cc(Cl)cc(Cl)c3)(C(F)(F)F)/C2=N/O)ccc1C(=O)NC1CS(=O)(=O)C1 (stereo not drawn) [A55]	≥ 80	≥ 80	–	–
O=C(NC1C[S+]([O-])C1)c1ccc(C2=NOC(c3cc(Cl)cc(Cl)c3)(C(F)(F)F)C2Br)c2ccccc12 (stereo not drawn) [A44]	≥ 80	≥ 80	–	–
Cc1cc(N2CC(c3cc(Cl)cc(Cl)c3)(C(F)(F)F)OC2=O)ccc1C(=O)NC1C[S+]([O-])C1 (stereo not drawn) [A10]	≥ 80	≥ 80	–	–
Cc1nc2c(C3=NOC(c4cc(Cl)cc(Cl)c4)(C(F)(F)F)C3)ccc(C(=O)NC3CSC3)c2o1 (stereo not drawn) [A29]	–	–	little or no effect	little or no effect
CC1(NC(=O)c2ccc(C3=NOC(c4cc(Cl)cc(Cl)c4)(C(F)(F)F)C3Br)c3ccccc23)CSC1 (stereo not drawn) [A43]	≥ 80	≥ 80	–	–
Cc1cc(C2=NOC(c3cc(Cl)cc(Cl)c3)(C(F)(F)F)C2F)ccc1C(=O)NC1C[S+]([O-])C1 (stereo not drawn) [A62]	≥ 80	≥ 80	–	–
